Assay [1] relates to HL-60. In words: Compound was tested in vitro for its ability to induce superoxide generation in HL-60 cells at concentration 10e-6 M. The class given is functional, Homo sapiens.
The test system of assay [2] is HL-60. Kind of assay: Compound was tested in vitro for its ability to induce superoxide generation in HL-60 cells at concentration 10e-7 M. The format is functional, Homo sapiens.
Assay [3] relates to HL-60. Kind of assay: Compound was tested in vitro for its ability to induce superoxide generation in HL-60 cells at concentration 10e-8 M. The format is functional, Homo sapiens.
In assay [4] the test system is HL-60. In words: Compound was tested in vitro for its ability to induce superoxide generation in HL-60 cells at concentration 10e-9 M. The format is functional, Homo sapiens.
Assay [5] concerns HL-60. Kind of assay: (§1) Compound was tested in vitro for percent EBV0EA-inducing activity in […] cells at concentration 10e-6 M. The format is functional, Homo sapiens.
The subject of assay [6] is HL-60. Kind of assay: Compound was tested in vitro for percent EBV0EA-inducing activity in […] cells at concentration 10e-7 M. The format is functional, Homo sapiens.
Assay [7] relates to HL-60. Kind of assay: Compound was tested in vitro for percent EBV0EA-inducing activity in […] cells at concentration 10e-8 M. The class given is functional, Homo sapiens.
For assay [8], the system named is HL-60. Kind of assay: Compound was tested in vitro for percent EBV0EA-inducing activity in […] cells at concentration 10e-9 M. The format is functional, Homo sapiens.
Assay [9] concerns the target T1, Protein kinase C alpha type (Homo sapiens, UniProt P17252). Kind of assay: Displacement of 3[H]PDBu from Protein kinase C alpha C1a domain.
Assay [10] has as its target T1, Protein kinase C alpha type. In words: Displacement of 3[H]PDBu from Protein kinase C alpha C1b domain.
Assay [11] deals with T2, Protein kinase C delta type (Homo sapiens, UniProt Q05655). In words: Displacement of 3[H]PDBu from Protein kinase C delta C1a domain.
T2 sequence (Q05655 whole entry, the tested form may be a part): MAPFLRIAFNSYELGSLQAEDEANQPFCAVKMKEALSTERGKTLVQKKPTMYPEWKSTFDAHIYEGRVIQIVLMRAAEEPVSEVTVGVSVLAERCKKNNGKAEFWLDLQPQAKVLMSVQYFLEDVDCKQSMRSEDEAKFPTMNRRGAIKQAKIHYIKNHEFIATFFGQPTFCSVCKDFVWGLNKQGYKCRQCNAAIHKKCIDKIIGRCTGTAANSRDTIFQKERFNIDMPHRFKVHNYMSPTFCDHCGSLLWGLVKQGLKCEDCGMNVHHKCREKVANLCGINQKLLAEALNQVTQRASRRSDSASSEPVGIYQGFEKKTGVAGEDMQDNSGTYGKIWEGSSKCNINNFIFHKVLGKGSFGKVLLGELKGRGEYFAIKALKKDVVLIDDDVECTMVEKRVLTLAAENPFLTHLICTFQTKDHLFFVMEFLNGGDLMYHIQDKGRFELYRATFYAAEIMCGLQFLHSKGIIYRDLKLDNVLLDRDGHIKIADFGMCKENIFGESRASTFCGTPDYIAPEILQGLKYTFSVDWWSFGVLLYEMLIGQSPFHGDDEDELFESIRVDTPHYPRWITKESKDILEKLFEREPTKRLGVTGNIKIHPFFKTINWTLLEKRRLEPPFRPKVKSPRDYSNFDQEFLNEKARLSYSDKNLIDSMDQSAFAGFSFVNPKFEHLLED
The target in assay [12] is T3, Protein kinase C eta type (Homo sapiens, UniProt P24723). Kind of assay: Displacement of 3[H]PDBu from Protein kinase C eta C1a domain.
T3 sequence (P24723 whole entry, the tested form may be a part): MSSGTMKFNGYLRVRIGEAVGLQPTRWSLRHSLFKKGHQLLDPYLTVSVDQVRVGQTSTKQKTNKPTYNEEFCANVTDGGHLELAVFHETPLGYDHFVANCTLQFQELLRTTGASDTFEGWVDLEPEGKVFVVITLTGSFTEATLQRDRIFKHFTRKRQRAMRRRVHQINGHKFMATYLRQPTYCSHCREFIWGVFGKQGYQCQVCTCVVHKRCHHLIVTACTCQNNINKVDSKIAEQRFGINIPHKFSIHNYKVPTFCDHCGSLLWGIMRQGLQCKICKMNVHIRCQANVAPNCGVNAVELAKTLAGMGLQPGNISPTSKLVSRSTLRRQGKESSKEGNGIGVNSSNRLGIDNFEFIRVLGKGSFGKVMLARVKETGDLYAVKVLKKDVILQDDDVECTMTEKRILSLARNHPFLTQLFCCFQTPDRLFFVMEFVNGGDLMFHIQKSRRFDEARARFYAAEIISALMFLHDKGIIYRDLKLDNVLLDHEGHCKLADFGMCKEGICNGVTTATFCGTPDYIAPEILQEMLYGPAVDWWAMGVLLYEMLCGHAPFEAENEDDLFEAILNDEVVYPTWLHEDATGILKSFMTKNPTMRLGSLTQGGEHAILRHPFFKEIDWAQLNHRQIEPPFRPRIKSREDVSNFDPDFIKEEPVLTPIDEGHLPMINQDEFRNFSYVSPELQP
For assay [13], the target named is T3, Protein kinase C eta type. In words: Displacement of 3[H]PDBu from Protein kinase C eta C1b domain.
The target in assay [14] is T4, Protein kinase C beta type (Homo sapiens, UniProt P05771). Kind of assay: Displacement of 3[H]PDBu from Protein kinase C beta C1b domain.
T4 sequence (P05771 whole entry, the tested form may be a part): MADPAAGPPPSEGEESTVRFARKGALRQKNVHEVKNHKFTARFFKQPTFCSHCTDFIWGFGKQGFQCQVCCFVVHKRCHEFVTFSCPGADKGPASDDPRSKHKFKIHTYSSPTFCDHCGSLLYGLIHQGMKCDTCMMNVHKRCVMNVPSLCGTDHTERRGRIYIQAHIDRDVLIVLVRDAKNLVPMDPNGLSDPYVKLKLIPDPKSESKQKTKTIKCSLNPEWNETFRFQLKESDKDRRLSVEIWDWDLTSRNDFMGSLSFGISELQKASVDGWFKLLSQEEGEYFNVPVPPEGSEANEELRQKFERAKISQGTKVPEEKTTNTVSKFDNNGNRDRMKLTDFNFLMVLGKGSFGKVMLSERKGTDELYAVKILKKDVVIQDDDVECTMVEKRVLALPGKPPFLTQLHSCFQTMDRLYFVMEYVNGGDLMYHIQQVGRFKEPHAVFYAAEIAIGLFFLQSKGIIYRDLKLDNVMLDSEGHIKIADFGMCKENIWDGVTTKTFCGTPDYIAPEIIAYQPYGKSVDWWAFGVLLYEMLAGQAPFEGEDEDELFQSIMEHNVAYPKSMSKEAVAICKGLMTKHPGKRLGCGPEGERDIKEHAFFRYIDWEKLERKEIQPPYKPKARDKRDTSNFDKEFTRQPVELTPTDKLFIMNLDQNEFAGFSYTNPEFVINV
The target of assay [15] is T4, Protein kinase C beta type. In words: Displacement of 3[H]PDBu from Protein kinase C beta C1a domain.
The target in assay [16] is T2, Protein kinase C delta type. Kind of assay: Displacement of 3[H]PDBu from Protein kinase C delta C1b domain.
Assay [17] addresses Protein kinase C theta type (Homo sapiens, UniProt Q04759). Kind of assay: Displacement of 3[H]PDBu from Protein kinase C theta C1b domain.
The target in assay [18] is T5, Protein kinase C gamma type (Homo sapiens, UniProt P05129). Kind of assay: Displacement of 3[H]PDBu from Protein kinase C gamma C1a domain.
The target of assay [19] is T5, Protein kinase C gamma type. In words: Displacement of 3[H]PDBu from Protein kinase C gamma C1b domain.
In assay [20] the target is T6, Protein kinase C epsilon type (Homo sapiens, UniProt Q02156).
T6 sequence (Q02156 whole entry): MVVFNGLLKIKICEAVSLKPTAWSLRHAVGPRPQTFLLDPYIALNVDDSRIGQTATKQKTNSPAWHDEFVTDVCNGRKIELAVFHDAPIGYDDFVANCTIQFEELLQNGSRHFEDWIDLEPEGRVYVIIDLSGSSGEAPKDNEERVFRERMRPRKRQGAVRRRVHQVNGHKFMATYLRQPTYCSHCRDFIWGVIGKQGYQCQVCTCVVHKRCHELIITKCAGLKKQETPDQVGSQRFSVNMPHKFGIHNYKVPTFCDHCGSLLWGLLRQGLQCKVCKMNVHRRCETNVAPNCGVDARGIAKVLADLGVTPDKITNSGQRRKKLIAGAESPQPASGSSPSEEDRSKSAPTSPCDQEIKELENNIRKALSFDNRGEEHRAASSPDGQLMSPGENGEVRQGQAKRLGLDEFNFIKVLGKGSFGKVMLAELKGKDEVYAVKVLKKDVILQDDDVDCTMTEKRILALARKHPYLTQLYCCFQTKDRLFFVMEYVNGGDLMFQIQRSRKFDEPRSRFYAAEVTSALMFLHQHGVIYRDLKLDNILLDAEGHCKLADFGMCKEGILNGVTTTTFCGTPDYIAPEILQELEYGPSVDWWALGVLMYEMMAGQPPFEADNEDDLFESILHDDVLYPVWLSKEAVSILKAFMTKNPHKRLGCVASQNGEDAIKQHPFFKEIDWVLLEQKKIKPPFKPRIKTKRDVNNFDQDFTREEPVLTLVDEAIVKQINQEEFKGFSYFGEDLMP
In words: Displacement of 3[H]PDBu from Protein kinase C epsilon C1a domain.

Assay [21] has as its target T6, Protein kinase C epsilon type. In words: Displacement of 3[H]PDBu from Protein kinase C epsilon C1b domain.
In assay [22] the test system is HL-60. In words: Compound was tested in vitro for percent EBV0EA-inducing activity in […] cells at concentration 10e-5 M. The class given is functional, cell-based, Homo sapiens.
The subject of assay [23] is HL-60. Described as §1. The class given is functional, cell-based, Homo sapiens.

The structures appear in SMILES notation.

Chain of Protein kinase C theta type (Q04759 whole entry, the tested form may be a part): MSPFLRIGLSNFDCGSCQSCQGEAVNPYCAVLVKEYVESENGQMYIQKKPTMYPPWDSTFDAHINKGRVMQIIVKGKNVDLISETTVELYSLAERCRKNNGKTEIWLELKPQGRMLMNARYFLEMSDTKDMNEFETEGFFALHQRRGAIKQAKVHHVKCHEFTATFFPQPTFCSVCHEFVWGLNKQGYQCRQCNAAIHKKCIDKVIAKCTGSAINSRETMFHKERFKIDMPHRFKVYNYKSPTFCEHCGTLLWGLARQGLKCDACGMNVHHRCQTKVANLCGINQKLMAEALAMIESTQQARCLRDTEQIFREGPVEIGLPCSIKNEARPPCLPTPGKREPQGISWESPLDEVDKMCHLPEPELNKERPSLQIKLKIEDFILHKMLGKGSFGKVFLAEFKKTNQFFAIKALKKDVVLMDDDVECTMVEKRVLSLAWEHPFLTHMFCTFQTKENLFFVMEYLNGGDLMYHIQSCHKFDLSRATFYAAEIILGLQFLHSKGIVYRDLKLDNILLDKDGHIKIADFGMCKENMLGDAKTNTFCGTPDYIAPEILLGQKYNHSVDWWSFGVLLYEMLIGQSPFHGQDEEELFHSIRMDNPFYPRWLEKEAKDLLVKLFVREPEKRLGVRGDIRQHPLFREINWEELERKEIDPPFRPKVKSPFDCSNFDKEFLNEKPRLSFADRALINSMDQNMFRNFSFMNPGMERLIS

As for `CCCC(=O)O[C@@H]1[C@@H](C)[C@]2(O)[C@@H]3C=C(C)C(=O)[C@H]3CC(CO)=C[C@H]2[C@@H]2C(C)(C)[C@]12OC(=O)CCC`, the Activity in assay [1] is 3.14 nM min-1 (10e-6*cells)-1; in assay [2], 3.16 nM min-1 (10e-6*cells)-1; in [3], 0.08 nM min-1 (10e-6*cells)-1; in assay [4] it was 0.11 nM min-1 (10e-6*cells)-1; in [5], 25.6%; in [6], 31.1%. Besides, the Activity was found to be 7% in assay [7] and 1.2% in assay [8]. The Ki (commonly the dissociation constant of the complex between target and ligand, obtained from inhibition or displacement) in assay [9] was determined as 4.05 nM; in [10] it was 13.9 nM; in assay [11] it was 70.2 nM; in assay [12] it was 14.9 nM; in [13], 0.35 nM; in assay [14], 2.23 nM. For the same compound, the Ki is 2.78 nM in assay [15]; 0.55 nM in assay [16]; 0.73 nM in [17]; 5.23 nM in [18]; 1.84 nM in [19]; 4.49 nM in [20]. For the same compound, affinity in assay [21] was put at a Ki of 0.58 nM.
For the compound `CCCC(=O)O[C@@H]1[C@@H](C)[C@]2(O)[C@@H]3C=C(C)C(=O)[C@@H]3CC(CO)=C[C@H]2[C@@H]2C(C)(C)[C@]12OC(=O)CCC`, the Activity in [22] is on record as 17.9%; in assay [23] it was 2.7%; in [1], 0.05 nM min-1 (10e-6*cells)-1.
Consider `CCCC(=O)O[C@@H]1[C@@H](C)[C@@]2(O)[C@@H](C=C(CO)C[C@]3(O)C(=O)C(C)=C[C@@H]23)[C@@H]2C(C)(C)[C@]12OC(=O)CCC`, for which the Activity in assay [1] is 3.32 nM min-1 (10e-6*cells)-1; in [2], 3.11 nM min-1 (10e-6*cells)-1; in assay [3], 0.11 nM min-1 (10e-6*cells)-1; in [4] it was 0 nM min-1 (10e-6*cells)-1; in assay [5], 29.9%; in assay [6] it was 33.1%. Also, the Activity was 10.8% in assay [7] and 3.6% in assay [8].

Source of the values: ChEMBL document CHEMBL1134710, “The C4 hydroxyl group of phorbol esters is not necessary for protein kinase C binding” (Bioorg Med Chem Lett, 2001).
